Data as given in patent US6936609B2, “Imidazotriazines for use as phosphodiesterase inhibitors” (Bayer HealthCare AG, priority 2001, dated 2005).
pIC50: −log10 of the molar value.

What was measured:
PDE 10A = target: T1, PDE 10A (Homo sapiens, UniProt Q9Y233); experiment: Inhibition of PDE 10A (in vitro enzyme inhibition test); type: biochemical; conditions: recombinant full-length PDE10A expressed in Sf9 insect cells; substrate [5',8-3H] adenosine 3',5'-cyclic phosphate; 60 min at room temperature; scintillation proximity beads
T1 construct: is expressed recombinantly in full length in Sf9 insect cells; made in house; host or cells: Sf9 insect cells (Bac-to-Bac baculovirus system); lysate supernatant used as the enzyme preparation
Protocol: PDE10A (WO 01/29 199, FIG. 1A) is expressed recombinantly in full length in Sf9 insect cells (Invitrogen, Carlsbad, Calif.) with the aid of the Bac-to-Bac™ Baculovirus expression system of Life Technologies (Gaithersburg, Md.). 48 h after the infection, the cells are harvested and suspended in 20 ml (per 1 l of culture) of lysis buffer (50 mM tris HCl, pH 7.4, 50 mM NaCl, 1 mM MgCl2, 1.5 mM EDTA, 10% glycerol plus 20 μl of Protease Inhibitor Cocktail Set III [CalBiochem, La Jolla, Calif. USA]). The cells are treated at 4° C. for 1 minute with ultrasound and subsequently centrifuged at 10000 rpm for 30 minutes at 4° C. The supernatant (PDE10A preparation) was collected and stored at −20° C.
The test substances are dissolved and serially diluted in 100% DMSO for the determination of their in vitro action on PDE 10A. Typically, dilution series of 200 μM to 1.6 μM are prepared (resulting final concentrations in the test: 4 μM to 0.032 μM). In each case, 2 μl of the diluted substance solutions are introduced into the wells of microtitre plates (Isoplate; Wallac Inc., Atlanta, Ga.). 50 μl of a dilution of the PDE10A preparation described above are subsequently added. The dilution of the PDE10A preparation is chosen such that during the later incubation less than 70% of the substrate is reacted (typical dilution: 1:10000; dilution buffer: 50 mM tris/HCl pH 7.5, 8.3 mM MgCl2, 1.7 mM EDTA, 0.2% BSA). The substrate, [5′,8-^3H] adenosine 3′, 5′-cyclic phosphate (1 μCi/μl; Amersham Pharmacia Biotech., Piscataway, N.J.) is diluted 1:2000 to a concentration of 0.0005 μCi/μl with assay buffer (50 mM tris/HCl pH 7.5, 8.3 mM MgCl2, 1.7 mM EDTA). The enzyme reaction is finally started by addition of 50 μl (0.025 μCi) of the diluted substrate. The test batches are incubated at room temperature for 60 min and the reaction is stopped by addition of 25 μl of a suspension containing 18 mg/ml of Yttrium Scintillation Proximity Beads (Amersham Pharmacia Biotech., Piscataway, N.J.). The microtitre plates are sealed using a film and allowed to stand at room temperature for 60 min. The plates are subsequently measured for 30 s per well in a Microbeta scintillation counter (Wallac Inc., Atlanta, Ga.). IC50 values are determined with the aid of graphic plotting of the substance concentration against the percentage inhibition.

T1 sequence (Q9Y233 1-779 isoform Q9Y233-1): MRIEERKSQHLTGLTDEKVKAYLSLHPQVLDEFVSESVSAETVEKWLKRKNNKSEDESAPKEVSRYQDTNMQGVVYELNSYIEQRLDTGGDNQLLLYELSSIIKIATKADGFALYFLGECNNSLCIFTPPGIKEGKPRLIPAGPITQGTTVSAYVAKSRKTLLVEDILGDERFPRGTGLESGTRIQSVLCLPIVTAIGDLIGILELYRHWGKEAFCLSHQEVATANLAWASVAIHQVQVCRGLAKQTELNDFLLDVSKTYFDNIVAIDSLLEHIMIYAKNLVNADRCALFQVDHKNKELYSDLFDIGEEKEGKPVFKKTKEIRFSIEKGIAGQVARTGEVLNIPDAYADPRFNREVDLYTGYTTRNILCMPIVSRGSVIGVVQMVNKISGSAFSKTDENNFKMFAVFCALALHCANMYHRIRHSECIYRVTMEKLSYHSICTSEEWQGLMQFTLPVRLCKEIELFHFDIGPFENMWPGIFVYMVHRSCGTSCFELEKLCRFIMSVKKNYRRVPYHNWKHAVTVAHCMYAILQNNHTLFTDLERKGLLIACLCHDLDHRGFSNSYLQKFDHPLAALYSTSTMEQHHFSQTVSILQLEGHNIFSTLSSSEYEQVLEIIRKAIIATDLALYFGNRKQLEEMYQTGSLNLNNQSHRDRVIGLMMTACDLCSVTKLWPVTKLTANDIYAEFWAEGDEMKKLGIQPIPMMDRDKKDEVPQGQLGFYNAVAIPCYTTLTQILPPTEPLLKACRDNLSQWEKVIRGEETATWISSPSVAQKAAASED

pIC50 (PDE 10A) | melting point [°C] | SMILES
6.68 | – | COc1ccc(Nc2nc(-c3ccc(OC)c(OC)c3)nn3c(C4CCCC4)nc(C)c23)cc1Cl [Example 16, N-(3-Chloro-4-methoxyphenyl)-7-cyclopentyl-2-(3,4-dimethoxyphenyl)-5-methyl-imidazo[5,1-f][1,2,4]triazin-4-amine]
7.04 | 244 | COc1ccc(Nc2nc(-c3ccc(OC)c(OC)c3)nn3c(C4CCCC4)nc(C)c23)c(OC)c1 [Example 18, N-[7-Cyclopentyl-2-(3,4-dimethoxyphenyl)-5-methylimidazo[5,1-f][1,2,4]triazin-4-yl]-N-(2,4-dimethoxyphenyl)amine]
7.89 | – | COc1ccc(-c2nc(Nc3cc(OC)c(OC)c(OC)c3)c3c(C)nc(C4CCCC4)n3n2)cc1S(=O)(=O)N1CCOCC1 [Example 24, 7-Cyclopentyl-2-[4-methoxy-3-(4-morpholinylsulphonyl)phenyl]-5-methyl-N-(3,4,5-trimethoxyphenyl)imidazo[5,1-f][1,2,4]triazin-4-amine]
5.62 | – | CCCc1nc(C)c2c(Nc3cccc(O)c3)nc(-c3ccccc3OCC)nn12 [Example 43, 3-{[2-(2-Ethoxyphenyl)-5-methyl-7-propylimidazo[5,1-f][1,2,4]triazin-4-yl]-amino}phenol]
7.17 | 219 to 220 | COc1cc(Nc2nc(-c3ccc(Br)cc3)nn3c(C)nc(C)c23)cc(OC)c1OC [Example 48, N-[2-(4-Bromophenyl)-5,7-dimethylimidazo[5,1-f][1,2,4]triazin-4-yl]-N-(3,4,5-trimethoxyphenyl)amine]
7.35 | 212 to 214 | COc1cc(Nc2nc(-c3ccc(C)cc3)nn3c(C)nc(C)c23)cc(OC)c1OC [Example 53, N-[5,7-Dimethyl-2-(4-methylphenyl)imidazo[5,1-f][1,2,4]triazin-4-yl]-N-(3,4,5-trimethoxyphenyl)amine]
